No end group written: not given here.
Biological target: Caf1M-Caf1, Caf1M-(Caf1)2 and Caf1M-(Caf1)3 complexes (Yersinia pestis, UniProt P26948)
Sequence (P26948 22-170 limits assumed, one chain of several): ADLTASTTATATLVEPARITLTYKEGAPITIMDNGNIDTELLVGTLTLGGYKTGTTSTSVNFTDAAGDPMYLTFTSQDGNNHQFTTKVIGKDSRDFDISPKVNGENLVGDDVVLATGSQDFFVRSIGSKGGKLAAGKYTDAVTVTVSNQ

Which results are given for ATATLV?
dissociation of the complexes to free Caf1M and Caf1: some dissociation; formation of high molecular weight complexes (polymerization): polymerization was completely inhibited
